Experimental data published in ChEMBL document CHEMBL4765344, “Expanding the anticancer potential of 1,2,3-triazoles via simultaneously targeting Cyclooxygenase-2, 15-lipoxygenase and tumor-associated carbonic anhydrases” (Eur J Med Chem, 2020).

Experiments:
[1] = system: WI-38; test: Cytotoxicity against human WI-38 cells assessed as reduction in cell viability after 72 hrs by SRB assay; assay type: cell-based; conditions: WI-38, 72 h
[2] = system: A549; test: Antiproliferative activity against human A549 cells assessed as inhibition of cell growth at 100 microM measured after 72 hrs by SRB assay; assay type: functional
[3] = system: HepG2; test: Antiproliferative activity against human HepG2 cells assessed as inhibition of cell growth at 100 microM measured after 72 hrs by SRB assay; assay type: functional
[4] = system: MCF7; test: Antiproliferative activity against human MCF-7 cells assessed as inhibition of cell growth at 100 microM measured after 72 hrs by SRB assay; assay type: functional
[5] = system: A549; test: Antiproliferative activity against human A549 cells assessed as cell growth inhibition measured after 72 hrs by SRB assay; assay type: functional, cell-based; conditions: A549, 72 h
[6] = system: HepG2; test: Antiproliferative activity against human HepG2 cells assessed as cell growth inhibition measured after 72 hrs by SRB assay; assay type: functional, cell-based; conditions: HepG2, 72 h
[7] = system: MCF7; test: Antiproliferative activity against human MCF-7 cells assessed as cell growth inhibition measured after 72 hrs by SRB assay; assay type: functional, cell-based; conditions: MCF7, 72 h
[8] = system: MCF7; test: Induction of apoptosis in human MCF-7 cells assessed as early apoptotic cells at IC50 measured after 24 hrs by Annexin V-FITC/propidium iodide staining based flow cytometry (reference value: 0.4%); assay type: functional
[9] = system: MCF7; test: Induction of apoptosis in human MCF-7 cells assessed as late apoptotic cells at IC50 measured after 24 hrs by Annexin V-FITC/propidium iodide staining based flow cytometry (reference value: […]); assay type: functional
[10] = system: MCF7; test: Induction of apoptosis in human MCF-7 cells assessed as necrotic cells at IC50 measured after 24 hrs by Annexin V-FITC/propidium iodide staining based flow cytometry (reference value: 1.27%); assay type: functional
[11] = system: A549; test: Induction of apoptosis in human A549 cells assessed as early apoptotic cells at IC50 measured after 24 hrs by annexin V-FITC staining based flow cytometry (reference value: 0.63%); assay type: functional
[12] = system: A549; test: Induction of apoptosis in human A549 cells assessed as late apoptotic cells at IC50 measured after 24 hrs by annexin V-FITC staining based flow cytometry (reference value: […]); assay type: functional
[13] = system: A549; test: Induction of apoptosis in human A549 cells assessed as necrotic cells at IC50 measured after 24 hrs by annexin V-FITC staining based flow cytometry (reference value: 1.01%); assay type: functional
[14] = system: MCF7; test: Induction of apoptosis in human MCF7 cells assessed as caspase-9 expression at IC50 by ELISA (reference value: 1.77 +/- 0.1 ng/ml); assay type: functional
[15] = system: MCF7; test: Induction of apoptosis in human MCF7 cells assessed as fold change in caspase-9 expression at IC50 by ELISA relative to control; assay type: functional
[16] = system: MCF7; test: Induction of apoptosis in human MCF7 cells assessed as Bax expression at IC50 by ELISA (reference value: 45.46 +/- 3.6 pg/ml); assay type: functional
[17] = system: MCF7; test: Induction of apoptosis in human MCF7 cells assessed as fold change in Bax expression at IC50 by ELISA relative to control; assay type: functional
[18] = system: MCF7; test: Induction of apoptosis in human MCF7 cells assessed as Bcl-2 expression at IC50 by ELISA (reference value: 7.49 +/- 0.1 ng/ml); assay type: functional
[19] = system: MCF7; test: Induction of apoptosis in human MCF7 cells assessed as fold change in Bcl-2 expression at IC50 by ELISA relative to control; assay type: functional
[20] = system: A549; test: Induction of apoptosis in human A549 cells assessed as caspase-9 expression at IC50 by ELISA (reference value: […] +/- […] ng/ml); assay type: functional
[21] = system: A549; test: Induction of apoptosis in human A549 cells assessed as fold change in caspase-9 expression at IC50 by ELISA relative to control; assay type: functional
[22] = system: A549; test: Induction of apoptosis in human A549 cells assessed as Bax expression at IC50 by ELISA (reference value: 42.16 +/-6.2 pg/ml); assay type: functional
[23] = system: A549; test: Induction of apoptosis in human A549 cells assessed as fold change in Bax expression at IC50 by ELISA relative to control; assay type: functional
[24] = system: A549; test: Induction of apoptosis in human A549 cells assessed as Bcl2 expression at IC50 by ELISA (reference value: 9.04 +/-0.1 ng/ml); assay type: functional
[25] = system: A549; test: Induction of apoptosis in human A549 cells assessed as fold change in Bcl2 expression at IC50 by ELISA relative to control; assay type: functional
[26] = Toxicity in ip dosed BALB/c mouse measured for 3 days; assay type: organism-based; conditions: in vivo, time 3 day
[27] = system: MCF7; test: Antitumor activity against human MCF7 cells xenografted in BALB/c mouse assessed as reduction in tumor volume at 23 mg/kg, ip administered thrice a week for 28 days by vernier caliper analysis; assay type: functional; conditions: time 28 day
[28] = system: MCF7; test: Induction of cell cycle arrest in human MCF7 cells assessed as accumulation at pre-G1 phase at IC50 measured after 24 hrs by propidium iodide/RNase staining based flow cytometry (reference value: 1.96%); assay type: functional
[29] = system: MCF7; test: Induction of cell cycle arrest in human MCF7 cells assessed as accumulation at G0/G1 phase at IC50 measured after 24 hrs by propidium iodide/RNase staining based flow cytometry (reference value: 51.72%); assay type: functional
[30] = system: MCF7; test: Induction of cell cycle arrest in human MCF7 cells assessed as accumulation at G2/M phase at IC50 measured after 24 hrs by propidium iodide/RNase staining based flow cytometry (reference value: 18.4%); assay type: functional
[31] = system: MCF7; test: Induction of cell cycle arrest in human MCF7 cells assessed as accumulation at S phase at IC50 measured after 24 hrs by propidium iodide/RNase staining based flow cytometry (reference value: 29.88%); assay type: functional
[32] = system: MCF7; test: Induction of cell cycle arrest in human MCF7 cells assessed as reduction in accumulation at G0/G1 phase at IC50 measured after 24 hrs by propidium iodide/RNase staining based flow cytometry relative to control; assay type: functional
[33] = system: MCF7; test: Induction of cell cycle arrest in human MCF7 cells assessed as increase in accumulation at G2/M phase at IC50 measured after 24 hrs by propidium iodide/RNase staining based flow cytometry relative to control; assay type: functional
[34] = system: MCF7; test: Induction of cell cycle arrest in human MCF7 cells assessed as increase in accumulation at pre-G1 phase at IC50 measured after 24 hrs by propidium iodide/RNase staining based flow cytometry relative to control; assay type: functional
[35] = system: A549; test: Induction of cell cycle arrest in human A549 cells assessed as accumulation at pre-G1 phase at IC50 measured after 24 hrs by propidium iodide/RNase staining based flow cytometry (reference value: 1.93%); assay type: functional
[36] = system: A549; test: Induction of cell cycle arrest in human A549 cells assessed as accumulation at G0/G1 phase at IC50 measured after 24 hrs by propidium iodide/RNase staining based flow cytometry (reference value: 58.26%); assay type: functional
[37] = system: A549; test: Induction of cell cycle arrest in human A549 cells assessed as accumulation at G2/M phase at IC50 measured after 24 hrs by propidium iodide/RNase staining based flow cytometry (reference value: 9.86%); assay type: functional
[38] = system: A549; test: Induction of cell cycle arrest in human A549 cells assessed as accumulation at S phase at IC50 measured after 24 hrs by propidium iodide/RNase staining based flow cytometry (reference value: 31.88%); assay type: functional
[39] = system: MCF7; test: Induction of apoptosis in human MCF-7 cells assessed as total apoptotic cells at IC50 measured after 24 hrs by Annexin V-FITC/propidium iodide staining based flow cytometry (reference value: 0.69%); assay type: functional
[40] = system: A549; test: Induction of apoptosis in human A549 cells assessed as total apoptotic cells at IC50 measured after 24 hrs by Annexin V-FITC/propidium iodide staining based flow cytometry (reference value: 0.92%); assay type: functional
[41] = Toxicity in BALB/c mouse xenografted with human MCF7 cells assessed as body weight at 23 mg/kg, ip administered thrice a week for 28 days measured on day 28 (reference value: 31.3 gms); assay type: organism-based; conditions: in vivo, 672 h, time 28 day
[42] = molecular target: T1, Prostaglandin G/H synthase 1 (Ovis aries, UniProt P05979); test: Inhibition of ovine COX1 by colorimetric analysis
T1 sequence (P05979 whole entry): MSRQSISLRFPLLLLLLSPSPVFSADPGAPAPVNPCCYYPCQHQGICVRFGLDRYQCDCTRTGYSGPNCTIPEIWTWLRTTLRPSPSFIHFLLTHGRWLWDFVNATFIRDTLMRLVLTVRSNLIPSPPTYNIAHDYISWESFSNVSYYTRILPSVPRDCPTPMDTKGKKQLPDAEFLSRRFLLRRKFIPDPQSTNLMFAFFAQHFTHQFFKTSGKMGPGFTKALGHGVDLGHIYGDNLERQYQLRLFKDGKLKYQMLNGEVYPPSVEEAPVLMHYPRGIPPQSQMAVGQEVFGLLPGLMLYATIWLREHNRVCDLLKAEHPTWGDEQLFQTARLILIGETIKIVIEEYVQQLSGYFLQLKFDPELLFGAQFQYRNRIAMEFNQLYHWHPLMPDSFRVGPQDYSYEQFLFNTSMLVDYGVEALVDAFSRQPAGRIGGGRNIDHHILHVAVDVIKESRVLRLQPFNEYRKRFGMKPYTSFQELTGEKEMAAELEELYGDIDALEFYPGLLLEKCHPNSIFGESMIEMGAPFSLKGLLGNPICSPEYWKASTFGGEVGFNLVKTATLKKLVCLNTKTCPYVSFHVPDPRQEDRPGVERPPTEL

[43] = Inhibition of soya bean 15-LOX; parameters: species or system Glycine max
[44] = molecular target: Carbonic anhydrase 1 (Homo sapiens, UniProt P00915); test: Inhibition of human CA1 by stopped-flow carbon dioxide hydration assay
[45] = molecular target: Carbonic anhydrase 2 (Homo sapiens, UniProt P00918); test: Inhibition of human CA2 by stopped-flow carbon dioxide hydration assay
[46] = molecular target: Carbonic anhydrase 9 (Homo sapiens, UniProt Q16790); test: Inhibition of human CA9 by stopped-flow carbon dioxide hydration assay
[47] = molecular target: Carbonic anhydrase 12 (Homo sapiens, UniProt O43570); test: Inhibition of human CA12 by stopped-flow carbon dioxide hydration assay
[48] = system: HT-29; test: Cytotoxicity against human HT-29 cells assessed as reduction in cell viability incubated for 24 hrs by MTS assay; assay type: functional, cell-based; conditions: HT-29, 24 h
[49] = system: THP-1; test: Cytotoxicity against PMA/LPS-challenged human THP1 cells assessed as reduction in cell viability incubated for 24 hrs by MTS assay; assay type: functional, cell-based; conditions: THP-1, 24 h
[50] = system: MCF7; test: Induction of apoptosis in human MCF-7 cells assessed as increase in total apoptotic cells at IC50 measured after 24 hrs by Annexin V-FITC/propidium iodide staining based flow cytometry relative to 5-FU; assay type: functional

Chain of Carbonic anhydrase 12 (O43570 whole entry): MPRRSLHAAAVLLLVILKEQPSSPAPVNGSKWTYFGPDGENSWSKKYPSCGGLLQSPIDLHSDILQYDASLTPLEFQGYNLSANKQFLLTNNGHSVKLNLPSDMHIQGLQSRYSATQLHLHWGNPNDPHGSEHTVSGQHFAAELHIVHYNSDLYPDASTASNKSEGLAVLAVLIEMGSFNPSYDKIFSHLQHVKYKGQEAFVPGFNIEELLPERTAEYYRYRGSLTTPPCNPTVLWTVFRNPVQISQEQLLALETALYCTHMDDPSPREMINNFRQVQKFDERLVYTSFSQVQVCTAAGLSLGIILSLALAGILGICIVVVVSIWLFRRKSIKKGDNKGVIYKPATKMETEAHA
Chain of Carbonic anhydrase 1 (P00915 whole entry): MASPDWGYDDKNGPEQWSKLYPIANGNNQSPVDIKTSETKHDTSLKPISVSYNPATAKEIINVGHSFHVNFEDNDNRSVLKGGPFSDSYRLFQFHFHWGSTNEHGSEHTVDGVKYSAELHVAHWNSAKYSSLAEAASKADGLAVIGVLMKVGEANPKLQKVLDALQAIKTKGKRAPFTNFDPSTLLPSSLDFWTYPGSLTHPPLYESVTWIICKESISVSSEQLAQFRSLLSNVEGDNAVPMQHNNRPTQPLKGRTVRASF

**Q.** Which results are given for O=c1[nH]cc(F)c(=O)[nH]1 [FLUOROURACIL]?
**A.** IC50 [1]: 78.5 µM; inhibition at 100 µM [2]: 89.3%; inhibition at 100 µM [3]: 80.7%; inhibition at 100 µM [4]: 90.7%; IC50 [5]: 0.69 µM; IC50 [6]: 0.52 µM; IC50 [7]: 0.59 µM; Activity [8]: 7.26%; Activity [9]: 17.71%; Activity [10]: 2.55%; Activity [11]: 4.29%; Activity [12]: 20.68%; Activity [13]: 3.11%; Activity [14]: 20.87 ng/mL; fold change (FC) [15]: 11.8; Activity [16]: 289.9 pg/mL; fold change (FC) [17]: 6.37; Activity [18]: 2.23 ng/mL; fold change (FC) [19]: 0.3; Activity [20]: 13.98 ng/mL; fold change (FC) [21]: 11.63; Activity [22]: 376.9 pg/mL; fold change (FC) [23]: 8.93; Activity [24]: 6.21 ng/mL; fold change (FC) [25]: 0.68; LD50 at 72 h [26]: 57.2 mg/kg; Activity [27]: 0.41 cm3; Activity [28]: 27.52%; Activity [29]: 34.09%; Activity [30]: 42.07%; Activity [31]: 23.84%; fold change (FC) [32]: 1.5; fold change (FC) [33]: 2.3; fold change (FC) [34]: 14; Activity [35]: 28.08%; Activity [36]: 36.47%; Activity [37]: 37.82%; Activity [38]: 25.71%; Activity [39]: 24.97%; Activity [40]: 24.97%; Activity [41]: 24.5 g

**Q.** Which results are given for C/C(=N\Nc1nc(-c2ccc(Cl)cc2)cs1)c1nnn(-c2ccc(Cl)cc2)c1C?
**A.** IC50 [42]: 11.9 µM; IC50 [43]: 1.68 µM; Ki [44]: > 100 µM; Ki [45]: > 100 µM; Ki [46]: > 100 µM; Ki [47]: > 100 µM; IC50 [1]: 379 µM; inhibition at 100 µM [2]: 77.5%; inhibition at 100 µM [3]: 74.4%; inhibition at 100 µM [4]: 91.3%; IC50 [5]: 8.9 µM; IC50 [6]: 2.37 µM; IC50 [7]: 2.69 µM; Activity [8]: 5.88%; Activity [9]: 11.29%; Activity [10]: 2.19%; Activity [14]: 13.02 ng/mL; fold change (FC) [15]: 7.36; Activity [16]: 227.2 pg/mL; fold change (FC) [17]: 4.99; Activity [18]: 4.02 ng/mL; fold change (FC) [19]: 0.54; IC50 [48]: 36.5 µM; IC50 [49]: 133 µM; Activity [28]: 19.36%; Activity [29]: 36.41%; Activity [30]: 38.7%; Activity [31]: 24.89%; fold change (FC) [32]: 1.4; fold change (FC) [33]: 2.1; fold change (FC) [34]: 9.9; Activity [39]: 17.17%; Activity [50]: 70%
